Data reported in US5145955A, “Process for the preparation and composition of a fraction containing picroside I and kutkoside” (Council of Scientific & Industrial Research, priority 1991, dated 1992).
Where two headings read alike, the source gives them in different places.

Experiments:
[1] = system: Plasmodium berghei infection in mastomys; experiment: Hepatoprotective activity against Plasmodium berghei infection-induced hepatic damage; format: in vivo; details: 1 mg/kg po × 15 days
[2] = system: isolated rat hepatocytes; format: cell-based; details: paracetamol-toxicated
Protocol: In the isolated hepatocyte preparation the, hepatoprotective activity was assessed against paracetamol, galactosamine carbon tetrachloride and thioacetamide induced damage.
The effect of cucurbitacin glucoside and F006 was also studied on paracetamol-toxicated isolated rat hepatocytes (ex vivo). At the doses of 0.5 and 1 mg/kg po×7.

[3] = system: cholestasis; experiment: Anticholestatic effect against induced cholestasis; format: in vivo; details: paracetamol induced; 0.5 and 1 mg/kg po × 7
[4] = system: thioacetamide induced hepatic damage (liver); experiment: Protection against thioacetamide induced biochemical changes in liver in rat; format: in vivo
Protocol: Although cucurbitacin glucoside (III) was a known compound, its biological activity is reported here for the first time. […] At higher dose (1 mg/kg) also, it reversed the decrease in levels of DNA (56%), RNA (100%) and glycogen (36%).

[5] = system: liver and serum biochemical parameters; experiment: Protection against altered liver and serum biochemical parameters (toxicant not given); format: in vivo
[6] = system: bile flow (choleretic effect); experiment: Choleretic effect of cucurbitacin glucoside and F006 (bile volume and bile contents); format: in vivo
[7] = dose not given, range given for both agents

`CC(=O)OC(C)(C)C=CC(=O)C(C)(O)C1C(O)CC2(C)C3CC=C4C(CC(O[C@@H]5O[C@H](CO)[C@@H](O)[C@H](O)[C@H]5O)C(O)C4(C)C)C3(C)CCC12C` (stereo partly drawn) [Cucurbitacin glucoside, 25-acetoxy-2β-D-glucopyranoxy-3,16,20-trihydroxy-9-methyl-19-norlanosta-5,23-diene-22-one] was tested, and the “protection against hepatic damage (biochemical parameters in serum and liver)” value [1] was “marked protection”, the “protection by Trypan blue exclusion test (cell viability)” value ([2]; 0.5 mg/kg po × 7) was 97.4% and the “rate of oxygen consumption / oxygen uptake test” value ([2]; 0.5 mg/kg po × 7) was 100%. For the same molecule, the “protection by Trypan blue exclusion test (cell viability)” value ([2]; 1 mg/kg po × 7) was 100%, the “rate of oxygen consumption / oxygen uptake test” value ([2]; 1 mg/kg po × 7) was 100% and the “reversal of decrease in bile acids” value [3] was “completely reversed”. For the same molecule, the “reversal of decrease in bile flow” value [3] was “completely reversed”, the “reversal of decrease in bile salts” value [3] was “completely reversed” and the “toxicant-induced decrease in activity of succinate dehydrogenase” value ([4]; higher dose (1 mg/kg)) was “reversed significantly”. The “toxicant-induced increase in activity of acid ribonuclease” value ([4]; higher dose (1 mg/kg)) was “reversed significantly”, the “protection against decrease in DNA level in liver” value ([4]; thioacetamide, 0.48 mg/kg) was 94% and the “protection against decrease in RNA level in liver” value ([4]; thioacetamide, 0.48 mg/kg) was 95%. The “protection against decrease in glycogen level in liver” value ([4]; thioacetamide, 0.48 mg/kg) was 60%, the “reversal of decrease in DNA level” value ([4]; thioacetamide, 1 mg/kg) was 56% and the “reversal of decrease in RNA level” value ([4]; thioacetamide, 1 mg/kg) was 100%. For the same molecule, the “reversal of decrease in glycogen level” value ([4]; thioacetamide, 1 mg/kg) was 36%, the “activity of cytochrome P450” value ([5]; 1 mg/kg) was “significantly restored” and the “activity of γ-glutamyl transpeptidase” value ([5]; 1 mg/kg) was “significantly restored”. The “level of DNA” value ([5]; 1 mg/kg) was “significant reversal”, the “level of RNA” value ([5]; 1 mg/kg) was “significant reversal” and the level of glycogen ([5]; 1 mg/kg) was “significant reversal”. The “serum level of GOT” value ([5]; 1 mg/kg) was “restored almost completely towards normal”, the “serum level of GPT” value ([5]; 1 mg/kg) was “restored almost completely towards normal” and the “level of bilirubin in serum” value ([5]; dose not given) was “recovered”. The “level of protein in serum” value ([5]; dose not given) was “recovered”, the “protection, level of phospholipids” value ([5]; dose not given) was “significant protection” and the “protection, 5'-nucleotidase activity” value [5, 7] was 46-56%. The “protection, acid ribonuclease activity” value [5, 7] was 48-96%, the “protection, glucose-6-phosphatase activity” value [5, 7] was 46-61% and the “protection, level of DNA” value [5, 7] was 55-78%. For the same molecule, the “protection, level of protein” value [5, 7] was 96-100%, the “recovery of increased level of total lipids” value [5, 7] was 44-55% and the “increase in bile salts” value ([6]; 0.5 mg/kg) was 40%. For the same molecule, the “increase in cholic acid” value ([6]; 0.5 mg/kg) was 38.5%, the “increase in deoxycholic acid” value ([6]; 0.5 mg/kg) was 47.6% and the “increase in volume of bile / bile flow” value ([6]; 0.5 mg/kg) was 38%. For the same molecule, the “increase in bile salts” value ([6]; 1 mg/kg) was 100%, the “increase in cholic acid” value ([6]; 1 mg/kg) was 100% and the “increase in deoxycholic acid” value ([6]; 1 mg/kg) was 100%. The “increase in volume of bile / bile flow” value ([6]; 1 mg/kg) was 90%.
